Where a name gives a salt, the structure may show the parent alone.
How the values were obtained:
[1] = tested on: late components of human complement (C3-C9); experiment: Test Code 035 (C3-C9 inhibitor), lysis of EAC 142; type: biochemical; conditions: in vitro; serial twofold dilution assay, higher well number indicates higher activity
From the text: (§1) An active inhibitor protects C2 from C1 and C4; (ii) Test Code 035 (C3-C9 inhibitor)--This test determines the ability of the late components of human complement (C3-C9) to lyse EAC 142 in the presence of appropriate dilutions of the test compound. An active inhibitor protects EAC 142 from lysis by human C3-C9; (iii) Test Code 036 (C-Shunt inhibitor)--In this test human erythrocytes rendered fragile are lysed in autologous serum via the shunt pathway activated by cobra venom factor in the presence of appropriate dilutions of the test compound. Inhibition of the shunt pathway results in failure of lysis; (iv) Cap 50 Test--Here, appropriate amounts of the test compound are added to a pool of guinea pig serum in vitro, after which the complement level is determined in undiluted serum by the serum capillary tube assay of U.S. Pat. No. 3,876,376. The concentration of compound inhibiting 50% is reported; and (v) Guinea Pig Intraperitoneal Test (GPIP)--Guinea pigs weighing about 300 g are dosed intraperitoneally (i.p.) with 200 mg/kg of the test compound dissolved in saline and adjusted to pH 7-8. Approximately 0.4 ml blood samples, taken by orbital sinus puncture 30 minutes and one hour after injections, are collected directly into centrifuge tubes; 5 ml blood samples, taken by decapitation 2 hours after injection are collected directly into disPo® beakers. The samples were allowed to clot, centrifuged, and the resultant sera were assayed for complement activity using the capillary complement assay referred to above. Percent inhibition is calculated by comparison with simultaneous controls. The results of the GPIP appear in Table I together with results of Test Code 026, 035, 036 and Cap 50.

activated human C1 = activated human C1 (Homo sapiens, UniProt P09871); experiment: Test Code 026 (C1 inhibitor); type: biochemical; conditions: in vitro; serial twofold dilution assay, higher well number indicates higher activity
From the text: as §1

[2] = tested on: shunt pathway activated by cobra venom factor; experiment: Test Code 036 (C-Shunt inhibitor), lysis of fragile human erythrocytes in autologous serum; type: cell-based; conditions: in vitro; serial twofold dilution assay, higher well number indicates higher activity
From the text: as §1

[3] = tested on: complement activity of sera; experiment: Guinea Pig Intraperitoneal Test (GPIP); type: in vivo; conditions: 200 mg/kg i.p.
From the text: as §1

[4] = tested on: total hemolytic complement activity of human serum; conditions: in vitro and in vivo, judged by reduction in total hemolytic complement activity; cited from earlier work

Compound: O=S(=O)(O)OC[C@H]1O[C@H](OC[C@H]2O[C@H](O[C@]3(COS(=O)(=O)O)O[C@H](CO[C@@H]4O[C@H](COS(=O)(=O)O)[C@@H](O[C@H]5O[C@H](COS(=O)(=O)O)[C@@H](O[C@H]6O[C@H](COS(=O)(=O)O)[C@@H](O[C@H]7O[C@H](COS(=O)(=O)O)[C@@H](O[C@H]8O[C@H](COS(=O)(=O)O)[C@@H](O[C@H]9O[C@H](COS(=O)(=O)O)[C@@H](O[C@H]%10O[C@H](COS(=O)(=O)O)[C@@H](OS(=O)(=O)O)[C@H](OS(=O)(=O)O)[C@H]%10OS(=O)(=O)O)[C@H](OS(=O)(=O)O)[C@H]9OS(=O)(=O)O)[C@H](OS(=O)(=O)O)[C@H]8OS(=O)(=O)O)[C@H](OS(=O)(=O)O)[C@H]7OS(=O)(=O)O)[C@H](OS(=O)(=O)O)[C@H]6OS(=O)(=O)O)[C@H](OS(=O)(=O)O)[C@H]5OS(=O)(=O)O)[C@H](OS(=O)(=O)O)[C@H]4OS(=O)(=O)O)[C@@H](OS(=O)(=O)O)[C@@H]3OS(=O)(=O)O)[C@H](OS(=O)(=O)O)[C@@H](OS(=O)(=O)O)[C@@H]2OS(=O)(=O)O)[C@H](OS(=O)(=O)O)[C@@H](OS(=O)(=O)O)[C@H]1OS(=O)(=O)O [drawing 25, O-α-D-Glucopyranosyl(1→4)-[O-α-D-glucopyranosyl(1→4)]5 -O-β-D-glucopyranosyl(1→6)-β-D-fructofuranosyl-O-α-D-galactopyranosyl(1→6)-α-D-glucopyranoside dotriacontakis(H-sulfate), dotriacontasalt with trimethylamine]
- C-Late 035 Wells [1]: 1 Wells
- C1 026 Wells (activated human C1): 9 Wells
- C-Shunt Inhibition 036 Wells [2]: 4 Wells

Compound: O=S(=O)(O)OC[C@H]1O[C@H](OC[C@H]2O[C@H](O[C@]3(COS(=O)(=O)O)O[C@H](CO[C@@H]4O[C@H](COS(=O)(=O)O)[C@@H](O[C@H]5O[C@H](COS(=O)(=O)O)[C@@H](O[C@H]6O[C@H](COS(=O)(=O)O)[C@@H](OS(=O)(=O)O)[C@H](OS(=O)(=O)O)[C@H]6OS(=O)(=O)O)[C@H](OS(=O)(=O)O)[C@H]5OS(=O)(=O)O)[C@H](OS(=O)(=O)O)[C@H]4OS(=O)(=O)O)[C@@H](OS(=O)(=O)O)[C@@H]3OS(=O)(=O)O)[C@H](OS(=O)(=O)O)[C@@H](OS(=O)(=O)O)[C@@H]2OS(=O)(=O)O)[C@H](OS(=O)(=O)O)[C@@H](OS(=O)(=O)O)[C@H]1OS(=O)(=O)O [drawing 23, O-α-D-Glucopyranosyl(1→4)-O-α-D-glucopyranosyl(1→4)-O-β-D-glucopyranosyl(1→6)-β-D-fructofuranosyl-O-α-D-galactopyranosyl(1→6)-α-D-glucopyranoside eicosakis(H-sulfate) eicosasalt with trimethylamine]
- C-Late 035 Wells [1]: 2 Wells
- C1 026 Wells (activated human C1): 9 Wells
- C-Shunt Inhibition 036 Wells [2]: 5 Wells

Compound: O=S(=O)(O)OC[C@H]1O[C@H](OC[C@H]2O[C@H](O[C@]3(COS(=O)(=O)O)O[C@H](CO[C@@H]4O[C@H](COS(=O)(=O)O)[C@@H](O[C@H]5O[C@H](COS(=O)(=O)O)[C@@H](O[C@H]6O[C@H](COS(=O)(=O)O)[C@@H](OS(=O)(=O)O)[C@H](OS(=O)(=O)O)[C@H]6OS(=O)(=O)O)[C@H](OS(=O)(=O)O)[C@H]5OS(=O)(=O)O)[C@H](OS(=O)(=O)O)[C@H]4OS(=O)(=O)O)[C@@H](OS(=O)(=O)O)[C@@H]3OS(=O)(=O)O)[C@H](OS(=O)(=O)O)[C@@H](OS(=O)(=O)O)[C@@H]2OS(=O)(=O)O)[C@H](OS(=O)(=O)O)[C@@H](OS(=O)(=O)O)[C@H]1OS(=O)(=O)O [drawing 24, O-α-D-Glucopyranosyl(1→4)-O-α-D-glucopyranosyl(1→4)-O-β-D-glucopyranosyl(1→6)-β-D-fructofuranosyl-O-α-D-galactopyranosyl(1→6)-α-D-glucopyranoside eicosakis(H-sulfate), eicosasodium salt]
- In vivo Activity (Guinea pigs) % Inhibition Intraperitoneal, 30 minutes ([3]; blood sample 30 minutes after injection): 49%
- In vivo Activity (Guinea pigs) % Inhibition Intraperitoneal, 60 minutes ([3]; blood sample 60 minutes after injection): 67%
- In vivo Activity (Guinea pigs) % Inhibition Intraperitoneal, 120 minutes ([3]; blood sample 120 minutes after injection): 78%
- C-Late 035 Wells [1]: 1 Wells
- C1 026 Wells (activated human C1): 9 Wells
- C-Shunt Inhibition 036 Wells [2]: 6 Wells

Compound: O=S(=O)(O)OC[C@H]1O[C@H](OC[C@H]2O[C@H](O[C@]3(COS(=O)(=O)O)O[C@H](CO[C@@H]4O[C@H](COS(=O)(=O)O)[C@@H](O[C@H]5O[C@H](COS(=O)(=O)O)[C@@H](O[C@H]6O[C@H](COS(=O)(=O)O)[C@@H](O[C@H]7O[C@H](COS(=O)(=O)O)[C@@H](O[C@H]8O[C@H](COS(=O)(=O)O)[C@@H](O[C@H]9O[C@H](COS(=O)(=O)O)[C@@H](O[C@H]%10O[C@H](COS(=O)(=O)O)[C@@H](OS(=O)(=O)O)[C@H](OS(=O)(=O)O)[C@H]%10OS(=O)(=O)O)[C@H](OS(=O)(=O)O)[C@H]9OS(=O)(=O)O)[C@H](OS(=O)(=O)O)[C@H]8OS(=O)(=O)O)[C@H](OS(=O)(=O)O)[C@H]7OS(=O)(=O)O)[C@H](OS(=O)(=O)O)[C@H]6OS(=O)(=O)O)[C@H](OS(=O)(=O)O)[C@H]5OS(=O)(=O)O)[C@H](OS(=O)(=O)O)[C@H]4OS(=O)(=O)O)[C@@H](OS(=O)(=O)O)[C@@H]3OS(=O)(=O)O)[C@H](OS(=O)(=O)O)[C@@H](OS(=O)(=O)O)[C@@H]2OS(=O)(=O)O)[C@H](OS(=O)(=O)O)[C@@H](OS(=O)(=O)O)[C@H]1OS(=O)(=O)O [drawing 26, O-α-D-Glucopyranosyl(1→4)-[O-α-D-glucopyranosyl(1→4)]5 -O-β-D-glucopyranosyl(1→6)-β-D-fructofuranosyl-O-α-D-galactopyranosyl(1→6)-α-D-glucopyranoside dotriacontakis(H-sulfate), dotriacontasodium salt]
- C-Late 035 Wells [1]: 3 Wells
- C1 026 Wells (activated human C1): 9 Wells
- C-Shunt Inhibition 036 Wells [2]: 5 Wells

Compound: pentosanpolysulfoester
- anticomplementary activity on human serum [4]: has an anticomplementary activity on human serum, both in vitro and in vivo

Reference: patent publication US4357326A, “Multi-glucopyranosyl-fructofuranosyl-galactopyranosyl-glucopyranoside sulfate salts and methods of use” (American Cyanamid Company, priority 1981, dated 1982)
